Experimental data from patent US8633226B2, “Piperidinyl derivative as a modulator of chemokine receptor activity” (Bristol-Myers Squibb Company, priority 2008, dated 2014).
Read-outs that look alike come from different tables or passages of the source.

How the values were obtained:
Human CCR1 = Human CCR1 (Homo sapiens (Human), UniProt P32246); assay: Human CCR1 THP-1 binding assay; settings: [125I]-MIP-1α competition, THP-1 cells
Protocol: For radioligand competition studies, a final concentration of 1×10^5 THP-1 monocytic leukemia cells are combined with 100 μg of LS WGA PS beads (Amersham, Cat.#: RPNQ 0260) in 40 μL of assay buffer (RPMI 1640 without phenol red, 50 mM HEPES, 5 mM MgCl2, 1 mM CaCl2, 0.1% BSA). The THP-1 cell/bead mixture was added to each well of a 384-well assay plate (PerkinElmer, Cat. #:6007899) containing test compound in 3-fold serial dilution, with final concentrations ranging from 8 μM to 0.14 nM. A final concentration of 0.1 nM [^125I]-MIP-1α (PerkinElmer, Cat. #NEX298) in 20 μL assay buffer was added to the reaction. Unlabeled MIP-1α was added in excess to some wells to determine non-specific binding. Sealed assay plates were incubated at room temperature for 12 h then analyzed by LEADseeker™.
The competition data of the test compound over a range of concentrations is plotted as percentage inhibition of radioligand specifically bound in the absence of test compound (percent of total signal). After correcting for non-specific binding, IC50 values are determined. The IC50 value is defined as the concentration of test compound needed to reduce [^125I]-MIP-1α specific binding by 50% and is calculated using the four parameter logistic equation to fit the normalized data. The Ki values are determined by application of the Cheng-Prusoff equation to the IC50 values, where Ki=IC50/(1+ligand concentration/Kd). The Kd of [^125I]-MIP-1α in THP-1 cells is 0.1 nM. Each experiment was run in duplicate.

Human PXR = Human PXR (Homo sapiens (Human), UniProt O75469); assay: PXR transactivation assay; type: cell-based; settings: HepG2 cells, CYP3A-Luc reporter; reported as EC60
Source text: The cell culture medium used is DMEM. […] Charcoal/dextran treated fetal bovine serum (FBS) was purchased from Hyclone (Logan, Utah). HepG2 cells were obtained from ATCC (Manassas, Va.). Human PXR-pcDNA3 and luciferase reporter containing CYP3A4 promoter, CYP3A-Luc, were generated at Bristol-Myers Squibb. White tissue culture (TC)-surface 384-well plates were purchased from Perkin Elmer (Boston, Mass.). Luciferase substrate (Steady-Glo) was purchased from Promega (Madison, Wis.). Control compounds rifampicin, mifepristone, and sulfinpyrazone were purchased from Sigma (St. Louis, Mo.).
Culture of HepG2 cells is performed in T175 flasks using DMEM containing 10% FBS. The transfection mixture contains 1 μg/mL of PXR-pcDNA3 plasmid DNA, 20 μg/ml of Cyp3A-Lue plasmid DNA, 90 μL/mL of Lipofectamine 2000, and serum-free medium. After incubating at room temperature for 20 minutes, the transfection mixture (1 ml per flask) is applied to the cells in fresh medium (20 mL per flask), and flasks incubated at 37° C. (5% CO2) overnight.
The flasks are then tapped vigorously to break up cell aggregates. After the addition of 8 mL of DMEM containing 5% charcoal/dextran-treated FBS, the entire mixture is transferred to conical tubes. Cells are then centrifuged at 1000 rpm for 5 minutes. Cell pellets are resuspended to a final count of ˜7×10^6 cells/ml, in freezing media (DMEM containing 20% serum and 10% DMSO). The cell suspension is aliquoted into 15-mL polypropylene tubes, 5 mL per tube. Cells are slowly frozen by placing in a Styrofoam-insulated container at −80° C. overnight. Vials are transferred to an Ultracold (−140° C.) freezer after 24 hours for long-term storage.
Vials of cryopreserved cells are thawed rapidly in a warm water bath for five minutes. Cells are pooled and diluted to 50 mL in a 50-mL conical vial. The thawed cells are centrifuged at 1500 rpm for 5 minutes to collect the cells and the supernatant discarded. Cells are then resuspended in fresh Media II (DMEM containing 5% charcoal/dextran-treated FBS, 1% Penicillin/Streptomycin, 100 μM Non-essential Amino Acids, 1 mM Sodium Pyruvate, and 2 mM L-Glutamine), counted using the Guava Cell Counter, and diluted to 1.6×10^5 cells/ml in the same media.
Fifty microliters of cell mixture is added to wells in columns 1-23 of white tissue-culture treated 384-well plates containing 0.25 μL of test compound dissolved in 100% DMSO. Fifty microliters of Media II is added to wells in column 24. The plates are incubated at 37° C. (5% CO2) for 24 hours, then 5 μL of Alamar Blue reagent (Trek Diagnostics, Cat #00-100) is added to each well. Plates are then incubated an additional two hours at 37° C., 5% CO2 and then one hour at room temperature. […] After the fluorescence is measured, 25 μL of luciferase substrate (Steady-Glo, Promega) is added to each well. The plates are incubated for fifteen minutes at room temperature, after which the luminescence is read on a PheraStar (BMG Labtech) plate reader.
Rifampicin (10 μM), a well-known agonist of PXR, is included in each plate as an internal standard and positive control. The data is then expressed as percent control (% CTRL), where the control signal is the signal from the 10 μM rifampicin and the blank signal is that from the DMSO vehicle. % CTRL=((Compound signal−Blank signal)/(Control signal−Blank signal))*100
The EC50 is defined as the concentration corresponding to half of the maximal response derived from the fitted 20-point curve as determined using a four-parameter logistic regression model. Additionally, compounds may also be reported as EC20 or EC60.

[1] = In vitro metabolism assay, human liver microsomes, Assay Conditions A; type: in vitro ADME; settings: 0.5 μM compound, 10 minutes, 37° C.
Protocol: Test compound is received as a 3.5 mM stock solution in 100 percent DMSO. Compound is diluted to create a 50 μM acetonitrile (ACN) solution containing 1.4% DMSO, which is then used as a 100× stock for incubation with microsomes. Each compound is tested in duplicate separately in each of three species in the Metabolic Stability-Human, Rat, and Mouse assay suite or as individual species in the Metabolic Stability-Dog or Metabolic Stability-Monkey suites. Compound, NADPH and liver microsome solutions are combined for incubation in three steps:
152 μL of liver microsome suspension, protein concentration of 1.1 mg/mL in 100 mM NaPi, pH 7.4, 6.6 mM MgCl2 buffer, is pre-warmed at 37° C.
• 1) 1.7 μL of 50 μM compound (98.6% ACN, 1.4% DMSO) is added to the same tube and pre-incubated at 37° C. for 5 minutes. • 2) The reaction is initiated by the addition of 17 μL of pre-warmed 10 mM NADPH solution in 100 mM NaPi, pH 7.4. • 3) Reaction components are mixed well, and 75 μL are immediately transferred into 150 μl quench/stop solution (zero-time point, T0). Reactions are incubated at 37° C. for 10 minutes and then an additional 75 μL aliquot is transferred into 150 μL quench solution. Acetonitrile containing 100 μM DMN (a UV standard for injection quality control), is used as the quench solution to terminate metabolic reactions. • 4) Quenched mixtures are centrifuged at 1500 rpm (˜500×g) in an Allegra X-12 centrifuge, SX4750 rotor (Beckman Coulter Inc., Fullerton, Calif.) for fifteen minutes to pellet denatured microsomes. A volume of 90 μL of supernatant extract, containing the mixture of parent compound and its metabolites, is then transferred to a separate 96-well plate for UV-LC/MS-MS analysis to determine the percent of parent compound that is remaining in the mixture. • 5)

hERG = hERG (Homo sapiens (Human), UniProt Q12809); assay: hERG patch clamp assay; type: cell-based; settings: HEK-293 cells stably expressing hERG, pH 7.4, protein-free buffer, read-out: hERG, % inh @ 30 μM
Protocol: Whole-cell patch-clamp was used to directly measure hERG tail currents in HEK-293 cells stably expressing the cloned hERG potassium channel α subunit. Effects of compounds were calculated by measuring inhibition of peak tail current. Experiments were carried out using an aqueous buffer with pH 7.4 at room temperature. There was no protein in the assay buffer. The test concentrations reported are nominal free drug levels.

[2] = biological target: human cardiac sodium channel SCN5A (Homo sapiens (Human), UniProt Q14524); assay: Sodium channel whole-cell patch-clamp assay; type: cell-based; settings: HEK-293 cells expressing human cardiac sodium channel SCN5A, pH 7.4, protein-free buffer, read-out: Na, % inh
Protocol: Whole-cell patch-clamp was used to directly measure inward sodium currents in HEK-293 cells expressing the human cardiac sodium channel, SCN5A. After reach steady-state effect in the presence of drug, rate-dependence was assessed by stimulation at frequencies of 1 Hz and 4 Hz. Experiments were carried out using an aqueous buffer at pH 7.4 and at room temperature. There is no protein in the buffer and drug concentrations reported are nominal free drug levels. Test article was evaluated up to 10 μM (protein-free buffer). Rate-dependence of inhibition was assessed by stimulation at frequencies of 1 Hz and 4 Hz.

[3] = biological target: human cardiac L-type Ca channel (α1C) and its β subunit (Homo sapiens (Human), UniProt Q13936); assay: L-type calcium channel whole-cell patch-clamp assay; type: cell-based; settings: HEK-293 cells, protein-free buffer
Protocol: In addition to the potential for interaction with the L-type calcium channel, whole-cell patch-clamp was used to directly measure inward calcium currents in HEK-293 cells stably expressing the cloned human cardiac L-type Ca channel (α1C) and its β subunit. Effects of compounds were calculated by measuring inhibition of peak current. Experiments were carried out using an aqueous buffer at pH 7.4 and at room temperature. There is no protein in the buffer and drug concentrations reported are nominal free drug levels.

Protein binding, human = type: in vitro ADME
Protein binding, rabbit = type: in vitro ADME
[4] = Electrocardiography in anesthetized rabbits; type: in vivo; settings: male, blood, anesthetized rabbit, iv
Protocol: (§1) A dose-response study of test compound was conducted in anesthetized rabbits to assess the cardiac electrophysiologic profile established in the cellular ion channel assays.
(§2) Experiments were performed in propofol-fentanyl anesthetized closed-chest male rabbits. A body surface electrocardiogram (ECG) and an intra-cardiac His-bundle electrogram were continuously monitored and recorded during the studies, using a PoNeMah system and a Prucka electrophysiological recording system, respectively. Test compound was prepared on the day of study in a vehicle of PEG400:ethanol:water (1:1:1) at a dosing concentration of 30 mg/mL. Test compound (n=3) or vehicle (n=3) was given intravenously over 5 minutes via an infusion pump at incremental doses of 3, 10 and 30 mg/kg. The interval between doses was 10 minutes, allowing for a 5-minute test agent infusion and a 5-minute rest period. Blood was sampled at baseline (pre-drug infusion) and immediately at the end of each infusion. For the 30 mg/kg dose, additional blood samples were taken at 10, 20 and 30 minutes after the end of infusion.
(§3) PR interval, QRS duration and QT interval were averaged from a 1 minute ECG recording period at time of blood sampling. QT interval was corrected for heart rate effects using both Fridericia (QTcf) and Van der Water (QTcv) formulae. AH and HV intervals, representing A-V node conduction and His-Purkinje conduction, respectively, were assessed by manual measurements from the His-bundle electrogram. Data were expressed as percent change from pre-drug baseline (mean±SEM) for PR, QRS, AH and HV intervals as well as delta change from the pre-drug infusion baseline (mean±SEM) for QTc intervals. Changes of ≧10% in PR, QRS, and AH intervals, and 20% in HV interval, as well as >10 ms in QTc interval are considered significant based on experience with the model.

anesthetized rabbits = assay: Electrocardiography in anesthetized rabbits; type: in vivo; settings: anesthetized rabbit; for Cmax: Free drug at QT effect dose / Cmax: Free drug at NOEL dose: iv
Protocol: as §1, §2, §3

Chain of Human CCR1 (P32246 whole entry): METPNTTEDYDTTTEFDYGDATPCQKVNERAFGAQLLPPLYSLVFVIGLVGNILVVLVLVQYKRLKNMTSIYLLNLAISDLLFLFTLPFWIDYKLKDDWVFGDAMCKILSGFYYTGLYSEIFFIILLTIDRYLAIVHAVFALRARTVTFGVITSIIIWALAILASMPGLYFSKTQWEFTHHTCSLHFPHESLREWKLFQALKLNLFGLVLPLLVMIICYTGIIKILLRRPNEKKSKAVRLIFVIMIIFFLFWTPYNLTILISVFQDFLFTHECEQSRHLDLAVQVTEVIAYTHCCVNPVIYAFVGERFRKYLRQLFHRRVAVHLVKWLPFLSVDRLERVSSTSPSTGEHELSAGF
Chain of human cardiac sodium channel SCN5A (Q14524 whole entry): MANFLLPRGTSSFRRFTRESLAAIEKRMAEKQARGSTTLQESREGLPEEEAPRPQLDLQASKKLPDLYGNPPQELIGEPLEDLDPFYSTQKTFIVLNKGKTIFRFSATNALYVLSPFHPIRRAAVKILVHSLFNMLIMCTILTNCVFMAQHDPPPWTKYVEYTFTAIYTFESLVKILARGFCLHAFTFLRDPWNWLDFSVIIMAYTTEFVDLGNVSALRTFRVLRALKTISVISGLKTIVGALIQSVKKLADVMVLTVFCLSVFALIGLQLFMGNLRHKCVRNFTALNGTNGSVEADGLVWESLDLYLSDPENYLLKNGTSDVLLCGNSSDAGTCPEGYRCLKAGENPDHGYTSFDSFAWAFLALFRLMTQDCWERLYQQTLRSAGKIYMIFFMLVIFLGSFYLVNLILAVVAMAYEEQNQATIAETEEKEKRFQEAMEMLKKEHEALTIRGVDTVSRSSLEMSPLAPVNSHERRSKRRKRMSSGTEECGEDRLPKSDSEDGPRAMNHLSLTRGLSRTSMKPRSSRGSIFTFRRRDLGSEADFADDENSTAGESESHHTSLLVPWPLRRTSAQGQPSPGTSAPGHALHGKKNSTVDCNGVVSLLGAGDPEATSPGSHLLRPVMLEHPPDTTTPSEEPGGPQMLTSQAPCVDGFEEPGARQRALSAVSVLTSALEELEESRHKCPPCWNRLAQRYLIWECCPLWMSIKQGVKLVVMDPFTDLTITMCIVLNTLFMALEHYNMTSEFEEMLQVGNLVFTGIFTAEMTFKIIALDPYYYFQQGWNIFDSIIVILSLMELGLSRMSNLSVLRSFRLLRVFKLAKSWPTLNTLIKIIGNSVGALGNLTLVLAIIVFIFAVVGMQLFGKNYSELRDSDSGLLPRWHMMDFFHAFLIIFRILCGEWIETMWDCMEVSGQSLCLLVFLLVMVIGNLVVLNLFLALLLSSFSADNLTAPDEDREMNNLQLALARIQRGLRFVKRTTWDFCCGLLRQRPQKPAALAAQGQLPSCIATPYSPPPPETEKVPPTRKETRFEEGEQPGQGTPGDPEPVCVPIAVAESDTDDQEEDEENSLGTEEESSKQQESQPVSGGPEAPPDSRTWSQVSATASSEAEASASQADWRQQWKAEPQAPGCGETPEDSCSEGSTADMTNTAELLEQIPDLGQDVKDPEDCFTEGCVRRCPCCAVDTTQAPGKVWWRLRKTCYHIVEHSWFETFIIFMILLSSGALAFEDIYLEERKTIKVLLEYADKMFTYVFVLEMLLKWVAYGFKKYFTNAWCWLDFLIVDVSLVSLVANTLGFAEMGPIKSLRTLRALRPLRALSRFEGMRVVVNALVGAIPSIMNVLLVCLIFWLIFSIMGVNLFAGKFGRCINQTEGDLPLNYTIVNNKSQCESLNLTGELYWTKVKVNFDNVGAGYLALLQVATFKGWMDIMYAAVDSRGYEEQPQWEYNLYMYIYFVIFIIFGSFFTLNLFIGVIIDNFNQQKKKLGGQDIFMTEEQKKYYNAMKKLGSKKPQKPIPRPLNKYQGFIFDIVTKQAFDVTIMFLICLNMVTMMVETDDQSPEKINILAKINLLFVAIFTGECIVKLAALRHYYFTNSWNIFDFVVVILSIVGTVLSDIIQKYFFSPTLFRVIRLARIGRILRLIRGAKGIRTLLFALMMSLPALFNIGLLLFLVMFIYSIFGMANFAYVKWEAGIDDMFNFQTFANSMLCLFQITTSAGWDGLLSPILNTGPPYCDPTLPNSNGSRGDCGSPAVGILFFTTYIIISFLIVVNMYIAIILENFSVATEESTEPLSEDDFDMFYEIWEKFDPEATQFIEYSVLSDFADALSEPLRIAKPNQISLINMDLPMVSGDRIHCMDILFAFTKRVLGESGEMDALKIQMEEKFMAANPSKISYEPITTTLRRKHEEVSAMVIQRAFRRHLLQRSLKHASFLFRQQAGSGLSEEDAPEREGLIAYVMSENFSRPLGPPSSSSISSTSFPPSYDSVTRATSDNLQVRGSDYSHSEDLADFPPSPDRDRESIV
Chain of Human PXR (O75469 whole entry): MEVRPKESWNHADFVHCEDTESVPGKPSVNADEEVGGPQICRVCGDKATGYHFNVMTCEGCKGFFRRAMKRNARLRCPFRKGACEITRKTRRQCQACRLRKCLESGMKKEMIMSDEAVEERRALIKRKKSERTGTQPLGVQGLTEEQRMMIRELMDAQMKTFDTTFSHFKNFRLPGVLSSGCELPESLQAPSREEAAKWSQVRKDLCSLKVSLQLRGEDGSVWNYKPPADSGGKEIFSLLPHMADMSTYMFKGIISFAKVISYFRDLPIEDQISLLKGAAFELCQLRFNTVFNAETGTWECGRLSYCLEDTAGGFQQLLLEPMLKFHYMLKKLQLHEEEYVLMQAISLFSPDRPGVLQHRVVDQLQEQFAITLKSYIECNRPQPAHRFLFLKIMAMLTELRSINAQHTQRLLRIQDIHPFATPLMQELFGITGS
Chain of hERG (Q12809 whole entry): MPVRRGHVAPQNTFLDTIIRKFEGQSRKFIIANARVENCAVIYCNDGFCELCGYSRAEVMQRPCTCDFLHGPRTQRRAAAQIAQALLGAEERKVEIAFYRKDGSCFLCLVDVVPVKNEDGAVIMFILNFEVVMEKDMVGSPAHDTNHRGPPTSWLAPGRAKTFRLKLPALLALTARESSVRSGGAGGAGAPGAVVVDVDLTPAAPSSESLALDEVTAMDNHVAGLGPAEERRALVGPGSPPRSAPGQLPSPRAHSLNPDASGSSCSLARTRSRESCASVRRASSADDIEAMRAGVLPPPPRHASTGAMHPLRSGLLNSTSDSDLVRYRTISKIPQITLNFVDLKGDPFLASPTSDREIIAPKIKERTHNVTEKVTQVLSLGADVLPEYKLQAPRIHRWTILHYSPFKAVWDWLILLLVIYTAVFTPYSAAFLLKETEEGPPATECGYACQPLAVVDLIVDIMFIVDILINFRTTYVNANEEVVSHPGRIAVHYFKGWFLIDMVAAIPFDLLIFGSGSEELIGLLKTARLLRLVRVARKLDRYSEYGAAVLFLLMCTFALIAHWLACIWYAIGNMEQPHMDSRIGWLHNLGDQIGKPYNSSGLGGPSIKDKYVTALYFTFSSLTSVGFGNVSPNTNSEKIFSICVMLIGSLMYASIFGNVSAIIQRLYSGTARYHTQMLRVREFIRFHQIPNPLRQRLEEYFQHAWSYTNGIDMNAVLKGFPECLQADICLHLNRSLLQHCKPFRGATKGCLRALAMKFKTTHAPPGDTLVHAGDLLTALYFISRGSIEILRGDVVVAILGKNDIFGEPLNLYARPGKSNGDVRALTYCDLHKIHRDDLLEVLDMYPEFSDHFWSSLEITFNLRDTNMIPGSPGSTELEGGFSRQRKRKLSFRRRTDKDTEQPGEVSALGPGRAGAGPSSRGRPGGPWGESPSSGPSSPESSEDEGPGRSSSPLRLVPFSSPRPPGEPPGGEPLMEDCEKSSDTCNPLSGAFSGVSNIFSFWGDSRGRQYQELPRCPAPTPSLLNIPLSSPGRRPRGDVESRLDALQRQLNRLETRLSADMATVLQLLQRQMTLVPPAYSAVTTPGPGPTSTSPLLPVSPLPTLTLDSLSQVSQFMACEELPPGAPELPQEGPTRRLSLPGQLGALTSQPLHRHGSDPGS

For CC(C)NC(=O)N[C@@H](C(=O)N1CC[C@](O)(c2ccc(Cl)cc2)C(C)(C)C1)C(C)C [#850], the Ki (Human CCR1) was 0.5 nM, the “PXR EC60” value (Human PXR) was 10200 nM and the “Human Liver Microsomal Metabolism % remaining (Assay Conditions A)” value [1] was 99% (A).
With CC[C@@H](C)NC(=O)N[C@@H](C(=O)N1CC[C@](O)(c2ccc(Cl)cc2)C(C)(C)C1)C(C)C [#897] the Ki (Human CCR1) was 2.1 nM, the “PXR EC60” value (Human PXR) was greater than 50000 nM and the “Human Liver Microsomal Metabolism % remaining (Assay Conditions A)” value [1] was 59% (A).
Compound CC(C)[C@@H](NC(=O)c1cccc(S(N)(=O)=O)c1)C(=O)N1CC[C@](O)(c2ccc(Cl)cc2)C(C)(C)C1 [EX# 491] has a Ki (Human CCR1) of 2.1 nM, an inhibition at 30 µM (hERG) of 27% and an inhibition at 10 µM [2] of 13%. The “Ca, % inh” value ([3]; 10 μM) was 22% @ 10 μM, the fraction unbound (Protein binding, human) was 0.05 and the fraction unbound (Protein binding, rabbit) was 0.06. The Cmax ([4]; 30 mg/kg, read-out: Cmax: Total drug at QT effect dose) was 138 µM, the Cmax ([4]; NOEL dose 10 mg/kg, read-out: Cmax: Total drug at NOEL dose) was 77 µM and the “NOEL dose (No Observed Effect Level)” value (anesthetized rabbits; iv infusion) was 10 mg/kg. The “QT effect Dose” value (anesthetized rabbits; iv infusion) was 30 mg/kg, the “QTcf, delta” value (anesthetized rabbits; iv infusion, at QT effect dose 30 mg/kg) was 17 ms and the “Cmax: Free drug at QT effect dose” value (anesthetized rabbits; 30 mg/kg) was 5.5 µM. For the same compound, the “Cmax: Free drug at NOEL dose” value (anesthetized rabbits; NOEL dose 10 mg/kg) was 3.1 µM.
Compound CC(C)[C@@H](NC(=O)[C@@H]1CC[C@@H](O)C1)C(=O)N1CC[C@](O)(c2ccc(Cl)cc2)C(C)(C)C1 [EX# 572] has a Ki (Human CCR1) of 1.5 nM, an inhibition at 30 µM (hERG) of 32% and an inhibition at 10 µM [2] of 25%. For the same compound, the “Ca, % inh” value ([3]; 30 μM) was 19% @ 30 μM, the fraction unbound (Protein binding, human) was 0.16 and the fraction unbound (Protein binding, rabbit) was 0.13. For the same compound, the Cmax ([4]; 10 mg/kg, read-out: Cmax: Total drug at QT effect dose) was 48.6 µM, the “QT effect Dose” value (anesthetized rabbits; iv infusion) was 10 mg/kg and the “QTcf, delta” value (anesthetized rabbits; iv infusion, at QT effect dose 10 mg/kg) was 22 ms. The “Cmax: Free drug at QT effect dose” value (anesthetized rabbits; 10 mg/kg) was 6.3 µM and the “Cmax: Free drug at NOEL dose” value (anesthetized rabbits; NOEL not identified (<10 mg/kg)) was less than 6.3 µM.
